# Experimental data: patent US20220128542A1, “TREATMENT EFFICIENCY EVALUATION” (TX MEDIC AB, priority 2019, published 2022)
# Tested on: brain of rats subjected to closed-head diffuse severe TBI (sTBI)
# Test: HPLC of energy metabolites, antioxidants and oxidative/nitrosative stress biomarkers in brain, dose study after sTBI (Example 3)
# Assay type: in vivo, rat
# Text: Male Wistar rats (n=160) of 300-350 g body weight were used in this study.
# 1994, 80: 291-300. This model causes diffuse axonal injury and it is able to reproduce the physical and mechanical characteristics of the diffuse TBI in humans.
# Rats were placed prone on a bed of specific polyurethane foam inserted in a special container. This foam dissipates the major part of the potential energy (deriving from the mechanical forces) and prevents any rebound of the animal after the impact that could produce spinal damages.
# These time points are coincident with the worst biochemical derangement (2 days) or, in the case of a mildly injured brain, with a full metabolic recovery (7 days).
# The drug treatment consisted in a subcutaneous injection of 0.5 ml of LMW-DS (Tikomed) and administered at 3 different concentrations (1, 5 and 15 mg/kg body weight), according to the schematic protocol described below.
# Sham-operated animals underwent the same procedure of anesthesia but TBI and were used as the control group.
# Rats used in this study were divided into 4 groups in order to carry out a study on the efficacy of three different concentrations of LMW-DS at two different times post TBI. As subsequently specified, in each group there were animals subjected to a specific treatment for metabolic analyses and other animals intended to histo-morphological studies, according to the procedures described below.
# Rats subjected to sTBI and receiving a single administration of LMW-DS after 30 minutes post-TBI, with sacrifice at 2 days post-TBI. Animals were divided in the following subgroups:
# Rats subjected to sTBI and receiving a single administration of LMW-DS after 30 minutes post-TBI, with sacrifice at 7 days post-TBI. Animals were divided in the following subgroups:
# Rats (n=12) subjected to sTBI and receiving repeated administrations of the maximal dose of LMW-DS (15 mg/kg b.w.) after 30 minutes, 3 days and 5 days post-TBI, with sacrifice at 7 days post-TBI. Four additional rats were used for the histo-morphological studies. Total rats in this group: n=16
# To minimize metabolite loss, an in vivo craniectomy was performed in all animals during anesthesia. The rat skull was carefully removed, the brain was exposed, sharply cut along the sagittal fissure and the two hemispheres were separated. The hemispheres dedicated to biochemical analyses were freeze-clamped by aluminum tongues pre-cooled in liquid nitrogen and then immersed in liquid nitrogen. The freeze-clamping procedure was introduced to accelerate freezing of the tissue, thus minimizing potential metabolite loss.
# Tissue homogenization for metabolite analyses was effected as described below. After the wet weight (w.w.) determination, the frozen hemispheres were placed into 7 ml of ice-cold, nitrogen-saturated, precipitating solution (1:10 w/v) composed by CH3CN+10 mM KH2PO4, pH 7.40, (3:1; v:v), and the homogenization was performed using an Ultra-Turrax homogenizer set at 24,000 rpm/min (Janke & Kunkel, Staufen, Germany). After centrifugation at 20,690×g, for 10 min at 4° C., the clear supernatants were saved, pellets were supplemented with an aliquot of 10 mM KH2PO4 and homogenized again as described above and saved overnight at −20° C. in order to obtain a complete recovery of aqueous phase from tissue. A second centrifugation was performed (20,690×g, for 10 min at 4° C.) and supernatants combined with those previously obtained were extracted by vigorous agitation with a double volume of HPLC-grade CHCl3 and centrifuged as above.
# [1] = rats 2 days post-TBI, single 15 mg/kg b.w. 30 min after trauma
# [2] = rats 7 days post-sTBI, repeated 15 mg/kg b.w.
# [3] = rats 7 days post-sTBI, single 1 mg/kg b.w.
# [4] = rats 7 days post-sTBI, single 5 mg/kg b.w.
# [5] = rats 7 days post-sTBI, single 15 mg/kg b.w.
substance,measurement,setting,value
sodium salt of dextran sulfate [LMW-DS],GUANOSINE concentration in brain homogenate,[1],24.35 ± 4.05 nmol/g w.w.
same,HYPDXANTHINE concentration in brain homogenate,[1],6.82 ± 1.12 nmol/g w.w.
same,INOSINE concentration in brain homogenate,[1],142.91 ± 18.63 nmol/g w.w.
same,URACIL concentration in brain homogenate,[1],15.55 ± 3.04 nmol/g w.w.
same,β-PSEUDOURIDINE concentration in brain homogenate,[1],7.84 ± 1.57 nmol/g w.w.
same,ADENOSINE concentration in brain homogenate,[2],40.84 ± 30.25 nmol/g w.w.
same,ADP-Ribose concentration in brain homogenate,[2],13.23 ± 3.32 nmol/g w.w.
same,AMP concentration in brain homogenate,[2],43.12 ± 3.39 nmol/g w.w.
same,Acetyl-CoA concentration in brain homogenate,[2],37.91 ± 6.46 nmol/g w.w.
same,CMP concentration in brain homogenate,[2],31.21 ± 13.28 nmol/g w.w.
same,CoA-SH concentration in brain homogenate,[2],45.76 ± 5.87 nmol/g w.w.
same,GDP concentration in brain homogenate,[2],109.06 ± 12.46 nmol/g w.w.
same,GUANINE concentration in brain homogenate,[2],3.32 ± 1.41 nmol/g w.w.
same,GUANOSINE concentration in brain homogenate,[2],19.66 ± 4.10 nmol/g w.w.
same,INOSINE concentration in brain homogenate,[2],139.26 ± 15.62 nmol/g w.w.
same,Malonyl-CoA concentration in brain homogenate,[2],12.56 ± 2.27 nmol/g w.w.
same,NADPH concentration in brain homogenate,[2],11.21 ± 2.60 nmol/g w.w.
same,NO2 concentration in brain homogenate,[2],130.69 ± 28.31 nmol/g w.w.
same,UDP-GIcNac concentration in brain homogenate,[2],86.42 ± 29.89 nmol/g w.w.
same,UDP-Gal concentration in brain homogenate,[2],135.15 ± 9.29 nmol/g w.w.
same,UDP-GalNac concentration in brain homogenate,[2],16.50 ± 4.73 nmol/g w.w.
same,URACIL concentration in brain homogenate,[2],24.13 ± 4.96 nmol/g w.w.
same,URIDINE concentration in brain homogenate,[2],97.21 ± 23.03 nmol/g w.w.
same,XANTHINE concentration in brain homogenate,[2],11.24 ± 3.18 nmol/g w.w.
same,ADP concentration in brain homogenate,[3],286.78 ±38.19 nmol/g w.w.
same,AMP concentration in brain homogenate,[3],43.13 ± 3.39 nmol/g w.w.
same,ASCORBIC ACID concentration in brain homogenate,[3],2177.22 ± 262.21 nmol/g w.w.
same,CDP choline concentration in brain homogenate,[3],6.26 ± 2.01 nmol/g w.w.
same,CMP concentration in brain homogenate,[3],25.41 ± 10.81 nmol/g w.w.
same,CYTIDINE concentration in brain homogenate,[3],29.67 ± 10.44 nmol/g w.w.
same,CYTOSINE concentration in brain homogenate,[3],16.03 ± 3.44 nmol/g w.w.
same,GDP concentration in brain homogenate,[3],121.72 ± 13.91 nmol/g w.w.
same,GMP concentration in brain homogenate,[3],113.06 ± 53.51 nmol/g w.w.
same,GSH concentration in brain homogenate,[3],1627.30 ± 214.51 nmol/g w.w.
same,GUANINE concentration in brain homogenate,[3],6.86 ± 2.92 nmol/g w.w.
same,GUANOSINE concentration in brain homogenate,[3],19.11 ± 3.98 nmol/g w.w.
same,NADH concentration in brain homogenate,[3],8.20 ± 1.41 nmol/g w.w.
same,NAD^+ concentration in brain homogenate,[3],268.14 ± 37.97 nmol/g w.w.
same,NO3 concentration in brain homogenate,[3],153.62 ± 26.24 nmol/g w.w.
same,UDP-GIcNac concentration in brain homogenate,[3],85.36 ± 29.53 nmol/g w.w.
same,UDP-Gal concentration in brain homogenate,[3],130.20 ± 8.95 nmol/g w.w.
same,UDP-GalNac concentration in brain homogenate,[3],15.85 ± 4.54 nmol/g w.w.
same,XANTHINE concentration in brain homogenate,[3],12.53 ± 3.54 nmol/g w.w.
same,ADP concentration in brain homogenate,[4],289.27 ± 38.52 nmol/g w.w.
same,AMP concentration in brain homogenate,[4],59.50 ± 4.68 nmol/g w.w.
same,ASCORBIC ACID concentration in brain homogenate,[4],2195.87 ± 264.45 nmol/g w.w.
same,CDP choline concentration in brain homogenate,[4],10.37 ± 3.33 nmol/g w.w.
same,CYTIDINE concentration in brain homogenate,[4],26.51 ± 9.33 nmol/g w.w.
same,CYTOSINE concentration in brain homogenate,[4],12.67 ± 2.72 nmol/g w.w.
same,GMP concentration in brain homogenate,[4],101.42 ± 48.00 nmol/g w.w.
same,GUANINE concentration in brain homogenate,[4],7.92 ± 3.37 nmol/g w.w.
same,GUANOSINE concentration in brain homogenate,[4],33.42 ± 6.96 nmol/g w.w.
same,NADH concentration in brain homogenate,[4],8.83 ± 1.26 nmol/g w.w.
same,NADPH concentration in brain homogenate,[4],12.30 ± 2.86 nmol/g w.w.
same,NADP^+ concentration in brain homogenate,[4],24.45 ± 8.97 nmol/g w.w.
same,UDP concentration in brain homogenate,[4],44.19 ± 6.22 nmol/g w.w.
same,UDP-GIcNac concentration in brain homogenate,[4],85.14 ± 29.45 nmol/g w.w.
same,UDP-Gal concentration in brain homogenate,[4],132.66 ± 9.12 nmol/g w.w.
same,UDP-Glc concentration in brain homogenate,[4],58.10 ± 11.81 nmol/g w.w.
same,XANTHINE concentration in brain homogenate,[4],14.33 ± 4.05 nmol/g w.w.
same,ADENOSINE concentration in brain homogenate,[5],55.95 ± 41.44 nmol/g w.w.
same,ADP concentration in brain homogenate,[5],276.83 ± 36.87 nmol/g w.w.
same,ADP-Ribose concentration in brain homogenate,[5],19.21 ± 4.82 nmol/g w.w.
same,Acetyl-CoA concentration in brain homogenate,[5],38.60 ± 6.57 nmol/g w.w.
same,CDP choline concentration in brain homogenate,[5],10.06 ± 3.23 nmol/g w.w.
same,CYTIDINE concentration in brain homogenate,[5],33.06 ± 11.63 nmol/g w.w.
same,CYTOSINE concentration in brain homogenate,[5],13.87 ± 2.98 nmol/g w.w.
same,GDP concentration in brain homogenate,[5],122.07 ± 13.95 nmol/g w.w.
same,GUANINE concentration in brain homogenate,[5],5.27 ± 2.24 nmol/g w.w.
same,GUANOSINE concentration in brain homogenate,[5],20.91 ± 4.36 nmol/g w.w.
same,NADP^+ concentration in brain homogenate,[5],23.75 ± 8.72 nmol/g w.w.
same,NAD^+ concentration in brain homogenate,[5],491.52 ± 69.61 nmol/g w.w.
same,NO3 concentration in brain homogenate,[5],161.99 ± 27.67 nmol/g w.w.
same,UDP-Gal concentration in brain homogenate,[5],137.57 ± 9.46 nmol/g w.w.
same,XANTHINE concentration in brain homogenate,[5],12.71 ± 3.60 nmol/g w.w.
